Test results reported in ChEMBL document CHEMBL1201862, “PubChem BioAssay data set” (2004).
Active and inactive are the calls of the source.

What was measured:
[1] = molecular target: T1, Endoribonuclease toxin MazF (Escherichia coli K-12, UniProt P0AE70); assay: substrate-only fluorescence increase artefacts – biochemical, single-stranded RNase substrate, counter-screen for MazEF activator project, dose response (AID 588502); type: functional
T1 sequence (P0AE70 whole entry): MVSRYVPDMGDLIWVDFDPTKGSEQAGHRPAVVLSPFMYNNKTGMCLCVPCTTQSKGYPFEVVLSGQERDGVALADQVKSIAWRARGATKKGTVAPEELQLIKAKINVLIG

[2] = molecular target: Induced myeloid leukemia cell differentiation protein Mcl-1 (Homo sapiens, UniProt Q07820); type: functional
[3] = molecular target: T1, Endoribonuclease toxin MazF; assay: activation of MazEF endoribonuclease cleavage – biochemical, fluorescence, single-stranded RNA substrate, uHTS hits, dose response (AID 588481); type: functional
Protein Wnt-3a = Protein Wnt-3a (Mus musculus, UniProt P27467); assay: antagonism of Wnt3a pathway luciferase reporter – Wnt-LIGHT cells, luminescence, selectivity assay for Gli-SUFU antagonist project, dose response (AID 651570); type: functional; conditions: read-out: IC50_Mean;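 note: Wnt-LIGHT reporter cells stimulated with conditioned medium from Wnt3a-producing cells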
INS1 = assay: INS-1E survival protection against cytokine death – cell-based, luminescence, retest, dose response (AID 449756); type: functional; conditions: Rattus norvegicus;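 note: cell death triggered by IL-1 beta plus TNF-alpha plus IFN-gamma mixture; protective hits raise ATP signal compared with cytokine alone wells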
Beta Lactamase = Beta Lactamase (Pseudomonas aeruginosa, UniProt Q932Y6); assay: BLA reporter interference, concentration series – BLA reporter cells, FRET fluorescence, artefact control for TLR9-MyD88 binding inhibitor project, dose response (AID 588341); type: cell-based;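 note: cell based assay in CHO-K1 cells stably expressing beta-lactamase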
H9c2 = assay: cells; type: functional, cell-based; conditions: Rattus norvegicus, H9c2, Myocardium;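 note: confirmatory concentration-response retest of ultra-high-throughput screening hits for modulation of myocardial damage; cell death induced by hydrogen peroxide oxidative stress; compound pretreatment for 60 min then peroxide exposure for 2 h; potency is for protecting the cells against peroxide damage rather than for killing them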
CHO = CHO cell viability loss, potency – luminescence, cytotoxicity control for TLR9-MyD88 binding inhibitor project, dose response (AID 588339); type: functional, cell-based, hamster; conditions: Cricetulus griseus;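 note: CHO cells stably coexpressing TLR9 and MyD88 fusions from primary screen; compound exposure lasted 48 hours before viability readout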
[4] = molecular target: 26S proteasome non-ATPase regulatory subunit 14 (Homo sapiens, UniProt O00487); assay: inhibition of proteasome subunit RPN11 – biochemical, fluorescence polarization, uHTS hits, confirmation (AID 602368); type: functional
Prothrombin = Prothrombin (Bos taurus, UniProt P00735); assay: thrombin protease inhibitors – biochemical, fluorescence polarization, uHTS hits, dose response (AID 602369); type: functional
[5] = molecular target: 72 kDa type IV collagenase (Homo sapiens, UniProt P08253); assay: Dose Response validation of uHTS RPN11 inhibitor hits using a MMP-2 Fluorescence assay.; type: functional
[6] = blockers of CRF-binding protein–CRF-R2 complex – cell-based, uHTS hits, 384-well, dose response (AID 651639); type: functional, Homo sapiens; conditions: read-out: IC50_Mean
[7] = molecular target: T2, Corticotropin-releasing factor receptor 2/Corticotropin-releasing factor-binding protein (Homo sapiens, UniProt P24387+Q13324); assay: Dose Response confirmation of uHTS hits for small molecule antagonists of the CRF-binding protein and CRF-R2 receptor complex.; type: functional; conditions: read-out: IC50_Mean
T2 sequence (Q13324 whole entry): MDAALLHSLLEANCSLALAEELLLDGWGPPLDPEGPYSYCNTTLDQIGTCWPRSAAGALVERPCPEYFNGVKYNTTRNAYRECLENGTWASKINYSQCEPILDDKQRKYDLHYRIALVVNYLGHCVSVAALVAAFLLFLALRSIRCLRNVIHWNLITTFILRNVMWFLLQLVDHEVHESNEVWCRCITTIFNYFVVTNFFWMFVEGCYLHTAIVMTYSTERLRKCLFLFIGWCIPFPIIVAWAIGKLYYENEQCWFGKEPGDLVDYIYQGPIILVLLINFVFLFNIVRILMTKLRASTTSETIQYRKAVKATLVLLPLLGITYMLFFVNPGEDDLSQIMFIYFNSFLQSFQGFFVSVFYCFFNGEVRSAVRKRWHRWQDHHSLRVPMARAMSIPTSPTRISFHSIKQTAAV
T2 sequence (P24387 whole entry): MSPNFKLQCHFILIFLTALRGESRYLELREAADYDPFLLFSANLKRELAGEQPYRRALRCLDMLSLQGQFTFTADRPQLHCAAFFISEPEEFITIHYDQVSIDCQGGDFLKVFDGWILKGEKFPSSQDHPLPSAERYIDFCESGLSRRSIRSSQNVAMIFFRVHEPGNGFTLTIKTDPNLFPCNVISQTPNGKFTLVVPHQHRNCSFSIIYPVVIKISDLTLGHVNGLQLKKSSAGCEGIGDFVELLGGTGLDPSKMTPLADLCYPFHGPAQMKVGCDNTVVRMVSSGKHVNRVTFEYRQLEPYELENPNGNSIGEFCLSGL

[8] = molecular target: T2, Corticotropin-releasing factor receptor 2/Corticotropin-releasing factor-binding protein; assay: activators of CRF receptor 2 with binding protein – uHTS hits, confirmation (AID 602473); type: functional; conditions: read-out: EC50_Mean
[9] = system: Streptococcus sp. 'group A'; assay: Streptococcus pyogenes SK(-)GAS viability under kanamycin – luminescence, BacTiterGlo, confirmation, counter-screen for streptokinase expression inhibitor project, dose response (AID 1900); type: functional, organism-based
Streptococcus = assay: GAS UMAA2166 growth inhibition – luminescence, BacTiterGlo, counter-screen for streptokinase expression inhibitor project, dose response (AID 1915); type: functional, organism-based;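 note: potency for reduction of bacterial viability or growth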
[10] = activation of miR-122 Renilla sensor silencing – cell-based, Huh7 psiCHECK-miR122, Renilla luciferase, cherry-picked, dose response (AID 651956); type: functional;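 note: huh7 hepatoma cells stably carrying a psiCHECK-2 miR-122 sensor plasmid; renilla luciferase signal reporting endogenous miR-122 activity after 48 h compound exposure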
Estrogen receptor = molecular target: T3, Estrogen receptor (Homo sapiens, UniProt P03372);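 note: potency for inhibiting coactivator peptide recruitment to the receptor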
T3 sequence (P03372 whole entry): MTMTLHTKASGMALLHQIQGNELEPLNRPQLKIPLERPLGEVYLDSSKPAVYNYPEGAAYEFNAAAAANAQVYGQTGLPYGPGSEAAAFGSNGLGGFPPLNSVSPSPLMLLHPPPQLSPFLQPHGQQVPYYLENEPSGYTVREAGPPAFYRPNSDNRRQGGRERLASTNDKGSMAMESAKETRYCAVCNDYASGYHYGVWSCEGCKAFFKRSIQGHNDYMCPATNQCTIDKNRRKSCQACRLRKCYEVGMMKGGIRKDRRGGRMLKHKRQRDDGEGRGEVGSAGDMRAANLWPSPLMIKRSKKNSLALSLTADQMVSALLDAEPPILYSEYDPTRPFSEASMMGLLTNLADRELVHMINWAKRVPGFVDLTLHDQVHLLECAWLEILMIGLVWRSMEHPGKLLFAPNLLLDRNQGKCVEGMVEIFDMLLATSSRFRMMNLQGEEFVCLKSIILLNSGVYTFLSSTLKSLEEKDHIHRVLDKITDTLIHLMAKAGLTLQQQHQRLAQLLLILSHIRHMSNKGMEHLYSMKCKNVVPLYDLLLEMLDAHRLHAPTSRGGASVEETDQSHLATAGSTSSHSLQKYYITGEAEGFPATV

72 kDa type IV collagenase, sequence (P08253 whole entry): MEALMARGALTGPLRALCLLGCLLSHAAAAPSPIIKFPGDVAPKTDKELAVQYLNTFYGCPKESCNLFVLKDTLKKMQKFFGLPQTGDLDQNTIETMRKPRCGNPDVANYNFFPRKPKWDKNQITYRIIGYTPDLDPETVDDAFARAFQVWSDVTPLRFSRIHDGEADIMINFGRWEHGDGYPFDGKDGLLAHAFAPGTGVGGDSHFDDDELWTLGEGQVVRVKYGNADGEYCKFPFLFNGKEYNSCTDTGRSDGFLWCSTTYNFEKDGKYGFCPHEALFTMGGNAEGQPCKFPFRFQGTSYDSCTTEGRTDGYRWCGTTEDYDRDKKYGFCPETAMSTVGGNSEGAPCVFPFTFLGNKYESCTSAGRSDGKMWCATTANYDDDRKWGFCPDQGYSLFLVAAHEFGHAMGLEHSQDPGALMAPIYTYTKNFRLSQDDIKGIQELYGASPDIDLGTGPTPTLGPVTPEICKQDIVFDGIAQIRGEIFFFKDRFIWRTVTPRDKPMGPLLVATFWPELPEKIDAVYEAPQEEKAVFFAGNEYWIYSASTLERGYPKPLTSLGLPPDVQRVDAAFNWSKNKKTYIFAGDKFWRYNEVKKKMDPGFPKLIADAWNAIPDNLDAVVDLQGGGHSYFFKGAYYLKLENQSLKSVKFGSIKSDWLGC
26S proteasome non-ATPase regulatory subunit 14, sequence (O00487 whole entry): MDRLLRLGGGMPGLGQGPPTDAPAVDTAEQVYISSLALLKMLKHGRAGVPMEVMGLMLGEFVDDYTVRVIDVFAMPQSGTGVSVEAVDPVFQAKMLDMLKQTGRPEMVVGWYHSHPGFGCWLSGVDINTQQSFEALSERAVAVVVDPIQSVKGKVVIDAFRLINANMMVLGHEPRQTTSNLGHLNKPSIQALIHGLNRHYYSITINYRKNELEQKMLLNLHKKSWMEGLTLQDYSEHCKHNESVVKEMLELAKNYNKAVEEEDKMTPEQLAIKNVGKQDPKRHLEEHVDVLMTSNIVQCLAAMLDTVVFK
Induced myeloid leukemia cell differentiation protein Mcl-1, sequence (Q07820 whole entry): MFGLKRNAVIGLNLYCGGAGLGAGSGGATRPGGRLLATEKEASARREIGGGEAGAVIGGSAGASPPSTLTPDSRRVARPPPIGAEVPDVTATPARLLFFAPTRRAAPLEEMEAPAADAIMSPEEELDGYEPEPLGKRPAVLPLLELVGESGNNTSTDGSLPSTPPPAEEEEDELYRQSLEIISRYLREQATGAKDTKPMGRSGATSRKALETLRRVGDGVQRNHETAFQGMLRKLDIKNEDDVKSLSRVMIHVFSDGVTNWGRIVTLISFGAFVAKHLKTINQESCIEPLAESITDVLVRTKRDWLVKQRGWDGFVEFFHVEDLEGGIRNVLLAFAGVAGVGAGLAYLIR
Protein Wnt-3a, sequence (P27467 whole entry): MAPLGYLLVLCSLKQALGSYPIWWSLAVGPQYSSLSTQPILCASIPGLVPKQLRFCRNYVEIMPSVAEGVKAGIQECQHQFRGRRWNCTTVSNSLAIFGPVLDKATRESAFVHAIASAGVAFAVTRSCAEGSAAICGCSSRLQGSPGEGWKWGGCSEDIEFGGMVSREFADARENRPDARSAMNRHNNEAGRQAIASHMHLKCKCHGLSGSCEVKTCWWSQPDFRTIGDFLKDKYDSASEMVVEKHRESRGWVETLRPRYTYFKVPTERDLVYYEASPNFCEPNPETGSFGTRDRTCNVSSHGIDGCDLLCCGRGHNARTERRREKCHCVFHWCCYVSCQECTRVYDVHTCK
Beta Lactamase, sequence (Q932Y6 whole entry): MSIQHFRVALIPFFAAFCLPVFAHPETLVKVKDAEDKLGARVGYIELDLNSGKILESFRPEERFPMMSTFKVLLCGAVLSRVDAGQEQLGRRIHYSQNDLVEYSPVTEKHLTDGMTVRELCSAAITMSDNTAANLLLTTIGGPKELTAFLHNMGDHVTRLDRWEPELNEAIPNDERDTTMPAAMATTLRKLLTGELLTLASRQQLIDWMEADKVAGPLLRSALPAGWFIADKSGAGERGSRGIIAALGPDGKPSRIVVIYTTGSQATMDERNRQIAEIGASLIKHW

With COc1ccc(-c2ccc(/C=C3/C(=N)N4C=CSC4=NC3=O)o2)c([N+](=O)[O-])c1 the EC50 [1] was > 99 µM (inactive), the IC50 [2] was 1.52 µM (active) and the EC50 [3] was 19.6 µM (active).
With Cc1sc2ncnc(NCc3cccs3)c2c1C the IC50 (Protein Wnt-3a) was 1.81 µM (active) and the AC50 (INS1) was 4.79 µM (active).
With COc1cc2oc3cc(C#Cc4ccc(N)cc4)ccc3c(=O)c2cc1OC the IC50 (Beta Lactamase) was 3.6 µM (active), the IC50 (H9c2) was > 79 µM (inactive) and the IC50 (CHO) was > 49.7 µM (inactive).
In the case of O=C(NCc1ccc(F)cc1)c1cccc2c1C(=O)c1ccc(N3CCOCC3)cc1S2(=O)=O, the IC50 [4] was 16.6 µM (active), the IC50 (Prothrombin) was 24.1 µM (active) and the IC50 [5] was > 100 µM (inactive).
With Cc1noc(C)c1CSCc1ccc(Cl)cc1 the IC50 [6] was > 20 µM (inactive), the IC50 [7] was 35.6 µM (active) and the EC50 [8] was > 53 µM (inactive).
For CO/N=C(/C(=O)N[C@@H]1C(=O)N2C(C(=O)O)=CCS[C@H]12)c1cnc(N)s1, the IC50 [4] was 1.33 µM (active), the EC50 [9] was < 0.06 µM (active) and the IC50 (Prothrombin) was 54.1 µM (active). For the same compound, the EC50 (Streptococcus) was < 0.06 µM (active) and the IC50 [5] was 0.122 µM (active).
With C[C@@H]1CN([C@@H](C)CO)S(=O)(=O)c2ccc(C3=CCCCC3)cc2O[C@@H]1CN(C)C(=O)Cc1ccncc1 the AC50 [10] was 6.22 µM (active).
With Cc1c(/C=N/n2cnnc2)c2ccccc2n1CCOc1ccc(Cl)cc1 the IC50 (Estrogen receptor) was > 50 µM (not active), the EC50 [1] was > 99 µM (inactive) and the EC50 [3] was > 99 µM (inactive).
